Experimental data: patent US5075287A, “Muramyl peptide derivatives and immunoregulating compositions containing them” (priority 1989, dated 1991)
Where two headings read alike, the source gives them in different places.

Key:
[1] = system: L-1210 mouse leukemia cells; assay: Activation of macrophages (growth inhibition of tumor cells by intraperitoneal macrophages of treated mice, MTT assay); format: cell-based; details: macrophages taken 3 days after i.p. 0.2 ml of 500 μg/ml, macrophage:L-1210 20:1, 72 hours
[2] = system: influenza HA vaccine (B/Nagasaki/1/87 strain); format: in vivo, female CDF1 mice; details: Experiment 1, 5000-fold dilution
[3] = system: hepatitis B virus surface antigen (HBs); assay: Hepatitis-vaccine enhancing activity (adjuvant activity): anti-HBs IgG in mouse serum by ELISA; format: in vivo, female CDF1 mice; details: Experiment 1, 5000-fold dilution
How it was run: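 Female CDF1 mice (n=7) given 0.2 ml i.p. of compound in lipid microspheres (1 mg/ml) mixed 1:1 with HBs antigen (50 μg/ml), boosted identically at 3 weeks. Sera from weekly fundus bleeds before and after boost. Anti-HBs IgG measured by ELISA.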

[4] = 4 W (after secondary stimulation at 3 weeks)
[5] = 5 W (after secondary stimulation at 3 weeks)

CCCCCCCCCCCCCC(=O)OC[C@H]1O[C@H](OC(=O)C[C@@H](CCCCCCCCCCC)OC(=O)CCCCCCCCCCCCC)[C@H](NC(C)=O)[C@@H](O[C@H](C)C(=O)N[C@@H](C)C(=O)N[C@H](CCC(=O)OC)C(N)=O)[C@@H]1O [Example 12, N-[2-0-{2-Acetamido-2,3-dideoxy-6-0-tetradecanoyl-1-0-((3R)-3-tetradecanoyloxytetradecanoyl)-α-D-glucopyranos-3yl}-D-lactoyl]-L-alanyl-D-isoglutamine methylester]
Growth inhibitory ratio of L-1210 mouse leukemia cells [1]: 79.0% | Anti HA serum antigen value (average value ± S.D.) ([2]; 1 W after i.p. administration, compound in lipidmicrosphere + HA vaccine): 0 O.D 415 nm | Anti HA serum antigen value (average value ± S.D.) ([2]; 2 W): 0.105 ± 0.004 O.D 415 nm | Anti HA serum antigen value (average value ± S.D.) ([2]; 3 W): 0.176 ± 0.002 O.D 415 nm | Anti HA serum antigen value (average value ± S.D.) [2, 4]: 1.039 ± 0.015 O.D 415 nm | Anti HA serum antigen value (average value ± S.D.) [2, 5]: 1.050 ± 0.008 O.D 415 nm | Anti-HBs IgG antibody level in serum (ELISA absorbance at 415 nm) ([3]; 1 W after i.p. administration, compound in lipidmicrosphere + HBs): 0.007 ± 0.003 O.D 415 nm | Anti-HBs IgG antibody level in serum (ELISA absorbance at 415 nm) ([3]; 2 W): 0.109 ± 0.002 O.D 415 nm | Anti-HBs IgG antibody level in serum (ELISA absorbance at 415 nm) ([3]; 3 W): 0.111 ± 0.001 O.D 415 nm | Anti-HBs IgG antibody level in serum (ELISA absorbance at 415 nm) [3, 4]: 0.608 ± 0.021 O.D 415 nm | Anti-HBs IgG antibody level in serum (ELISA absorbance at 415 nm) [3, 5]: 0.695 ± 0.021 O.D 415 nm
